According to patent EP0745595A1, “3-(3-Aryloxyphenyl)-1-(substituted methyl)-s-triazine-2,4,6-oxo or thiotrione herbicidal agents” (American Cyanamid Company, priority 1995, dated 1996):

Legend:
Format in all cases: in vivo
[1] = test system: AMBROSIA ARTEMISIIFOLIA, L.; test: Preemergence herbicidal evaluation, AMBEL (Ragweed, Common); settings: rated four to five weeks after treatment
Text: (§1) Results of herbicide evaluation are expressed on a rating scale (0-9). The scale is based upon a visual observation of plant stand, vigor, malformation, size, chlorosis and overall plant appearance as compared with a control.
(§2) The preemergence herbicidal activity of the test compounds of the present invention is exemplified by the following tests in which the seeds of a variety of monocotyledonous and dicotyledonous plants are separately mixed with potting soil and planted on top of approximately one inch of soil in separate pint cups. […] The treated cups are then placed on greenhouse benches, watered and cared for in accordance with conventional greenhouse procedures. From four to five weeks after treatment, the tests are terminated and each cup is examined and rated according to the rating system provided in Example 40.
(§3) The compounds evaluated are reported by compound number given in Example 40.

CASSIA OBTUSIFOLIA, L. [2] = test: Preemergence herbicidal evaluation, CASOB (Sicklepod); settings: rated four to five weeks after treatment
Method in brief: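 Seeds of various monocot and dicot plants, including sicklepod, were each mixed with potting soil and sown on roughly one inch of soil in separate pint cups for preemergence testing. Treated cups were kept on greenhouse benches, watered and maintained conventionally. Four to five weeks after treatment, each cup was visually rated on a 0-9 scale against a control.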

IPOMOEA SPP. [3] = test: Preemergence herbicidal evaluation, IPOSS (Morningglory spp.); settings: rated four to five weeks after treatment
Text: as §1, §2, §3

GALIUM APARINE = test: Preemergence herbicidal evaluation, GALAP (Galium); settings: rated four to five weeks after treatment
Text: as §1, §2, §3

[4] = test system: TRITICUM AESTIVUM, CV. APOLLO; test: Preemergence herbicidal evaluation, TRZAWO (Wheat, Winter, CV. APOLLO); settings: rated four to five weeks after treatment
Text: as §1, §2, §3

[5] = test system: CYPERUS SEROTINUS, ROTTB.; test: Preemergence weed control under flooded paddy conditions, CYPSE (Flatsedge); settings: preemergence, 3-4 weeks after treatment
Method in brief: (§4)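 Seeds or propagules were planted 0.5 cm deep in silt loam, with flood water held at 1.5 to 3 cm. Compound in 50/50 aqueous/acetone was pipetted into the flood water at about 0.5, 0.25, 0.125 and 0.063 kg/ha. Injury was rated visually on a 0-9 scale against a control 3-4 weeks after treatment.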

SAGITTARIA PYGMAEA, L. = test: Preemergence weed control under flooded paddy conditions, SAGPY (Arrowhead (Pygmaea)); settings: preemergence, 3-4 weeks after treatment
Method in brief: as §4

[6] = test system: ORYZA SATIVA, L. TEBONNET; test: Rice tolerance to post-transplant applications under flooded paddy conditions, ORYSAT (Rice, Tebonnet); settings: post-transplant rice, 3-4 weeks after treatment
Method in brief: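 Two ten-day-old Tebonnet rice seedlings transplanted into silt loam, flooded 1.5–3 cm; three days later the water surface treated with compounds in acetone/water at about 0.5, 0.25, 0.125 and 0.063 kg/ha. Visual 0–9 injury rating versus control after 3–4 weeks in greenhouse.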

[7] = test system: ABUTILON THEOPHRASTI, MEDIC.; test: Postemergence herbicidal evaluation, ABUTH (Velvetleaf)
Method in brief: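 Velvetleaf (Abutilon theophrasti) seedlings were raised in jiffy flats for about two weeks and then sprayed postemergence. The test compound was dispersed in a 50/50 acetone/water mixture containing 0.5% TWEEN®20 and applied through a nozzle operating at 40 psi. Plants were kept on greenhouse benches and rated 0-9 four to five weeks after treatment.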

[8] = test system: AMBROSIA ARTEMISIIFOLIA, L.; test: Postemergence herbicidal evaluation, AMBEL (Ragweed, Common)
Method in brief: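 Common ragweed (Ambrosia artemisiifolia) seedlings were raised in jiffy flats for roughly two weeks, then sprayed postemergence through a nozzle at 40 psi with the test compound dispersed in 50/50 acetone/water carrying 0.5% TWEEN®20. The plants were kept on greenhouse benches under conventional care. Four to five weeks later, injury was rated visually on a 0-9 scale, and repeat tests were averaged.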

CASSIA OBTUSIFOLIA, L. [9] = test: Postemergence herbicidal evaluation, CASOB (Sicklepod); design: key to CASOB rating / Herbicidal effect rating, CASOB / CASOB: 0-9 visual rating scale vs untreated control
Method in brief: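 Visual 0–9 scores reflect stand, vigor, malformation, size, chlorosis and overall appearance relative to control, taken 4–5 weeks after spraying two-week-old seedlings with about 0.125–0.500 kg/ha compound in acetone/water/TWEEN 20.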

CHENOPODIUM ALBUM, L. [10] = test: Postemergence herbicidal evaluation, CHEAL (Lambsquarters, Common)
Method in brief: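 Seedlings of common lambsquarters (Chenopodium album) were raised in jiffy flats for roughly two weeks, then sprayed postemergence through a nozzle at 40 psi with test compound dispersed in 50/50 acetone/water containing 0.5% TWEEN®20 surfactant. Plants were kept on greenhouse benches under standard care and rated visually on a 0-9 scale versus controls.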

IPOMOEA SPP. [11] = test: Postemergence herbicidal evaluation, IPOSS (Morningglory spp.)
Method in brief: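 Seedlings of morningglory (Ipomoea spp.) were raised in jiffy flats for roughly two weeks. They were then sprayed postemergence through a nozzle at 40 psi with test compound dispersed in 50/50 acetone/water containing 0.5% TWEEN®20 surfactant. Plants were kept on greenhouse benches under standard care and visually rated 0-9 against controls four to five weeks after treatment.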

[12] = test system: SETARIA VIRIDIS, (L) BEAU; test: Postemergence herbicidal evaluation, SETVI (Foxtail, Green); design: key to SETVI rating / Herbicidal effect rating, SETVI / SETVI: 0-9 visual rating scale vs untreated control
Method in brief: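 Two-week-old seedlings sprayed with compound in 50/50 acetone/water plus 0.5% TWEEN 20 at about 0.125–0.500 kg/ha via nozzle at 40 psi. Kept in greenhouse; rated visually 4–5 weeks after treatment on a 0–9 scale versus untreated control, averaging repeat tests.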

[13] = test system: TRITICUM AESTIVUM, CV. APOLLO; test: Postemergence herbicidal evaluation, TRZAWO (Wheat, Winter, CV. APOLLO)
Experimental: In the tests, seedling plants are grown in jiffy flats for about two weeks. The test compounds are dispersed in 50/50 acetone/water mixtures containing 0.5% TWEEN®20, a polyoxyethylene sorbitan monolaurate surfactant of Atlas Chemical Industries, […] through a spray nozzle operating at 40 psi for a predetermined time. After spraying, the plants are placed on greenhouse benches and are cared for in the usual manner, commensurate with conventional greenhouse practices. From four to five weeks after treatment, the seedling plants are examined and rated according to the rating system set forth below. Where more than one test is involved for a given compound, the data are averaged.
(§5) Plant species employed in these evaluations are reported by header abbreviation, common name and scientific name.
as §1

ZEA MAYS L. [14] = test: Postemergence herbicidal evaluation, ZEAMX (Corn, Field)
Experimental: In the tests, seedling plants are grown in jiffy flats for about two weeks. The test compounds are dispersed in 50/50 acetone/water mixtures containing 0.5% TWEEN®20, a polyoxyethylene sorbitan monolaurate surfactant of Atlas Chemical Industries, […] to the plants through a spray nozzle operating at 40 psi for a predetermined time. After spraying, the plants are placed on greenhouse benches and are cared for in the usual manner, commensurate with conventional greenhouse practices. From four to five weeks after treatment, the seedling plants are examined and rated according to the rating system set forth below. Where more than one test is involved for a given compound, the data are averaged.
as §5, §1

CHENOPODIUM ALBUM, L. [15] = test: Preemergence herbicidal evaluation, CHEAL (Lambsquarters, Common); settings: rated four to five weeks after treatment
Method in brief: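 First, seeds in potting soil are sown atop soil in cups. Next, the surface is sprayed with test compound in aqueous acetone at roughly 0.125 to 0.50 kg per hectare. After four to five weeks of greenhouse care, each cup is scored 0-9 against a control.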

ZEA MAYS L. [16] = test: Preemergence herbicidal evaluation, ZEAMX (Corn, Field); settings: rated four to five weeks after treatment
Method in brief: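 Corn (Zea mays) seeds were mixed with potting soil and planted on about one inch of soil in pint cups, then treated preemergence. Cups were kept on greenhouse benches, watered and maintained conventionally, and after four to five weeks were visually rated on a 0-9 scale versus an untreated control.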

Cn1c(=O)n(CC(=O)OC(C)(C)C)c(=O)n(-c2cc(Oc3ccc(C(F)(F)F)cc3Cl)ccc2Cl)c1=O [Compound 40, Tert-butyl 3-{[2-chloro-5-(2-chloro-α,α,α-trifluoro-p-tolyl)oxy]phenyl}tetrahydro-5-methyl-2,4,6-trioxo-s-triazine-1(2H)-acetate]
1.5: Herbicidal effect rating, ORYSAT ([6]; 0.250 kg/ha) | Herbicidal effect rating, ORYSAT ([6]; 0.500 kg/ha)
0.5: IPOSS herbicidal rating (IPOMOEA SPP. [3]; Rate 0.125 kg/ha) | IPOSS herbicidal rating (IPOMOEA SPP. [3]; Rate 0.250 kg/ha) | Herbicidal effect rating, ORYSAT ([6]; 0.063 kg/ha) | Herbicidal effect rating, ORYSAT ([6]; 0.125 kg/ha)
0.0: AMBEL herbicidal rating ([1]; Rate 0.125 kg/ha) | AMBEL herbicidal rating ([1]; Rate 0.250 kg/ha) | TRZAWO herbicidal rating ([4]; Rate 0.125 kg/ha) | TRZAWO herbicidal rating ([4]; Rate 0.250 kg/ha) | Herbicidal effect rating, CYPSE ([5]; 0.063 kg/ha) | Herbicidal effect rating, CYPSE ([5]; 0.125 kg/ha) | Herbicidal effect rating, CYPSE ([5]; 0.250 kg/ha) | Herbicidal effect rating, CYPSE ([5]; 0.500 kg/ha) | Herbicidal effect rating, SAGPY (SAGITTARIA PYGMAEA, L.; 0.063 kg/ha) | Herbicidal effect rating, SAGPY (SAGITTARIA PYGMAEA, L.; 0.125 kg/ha) | Herbicidal effect rating, SAGPY (SAGITTARIA PYGMAEA, L.; 0.250 kg/ha) | Herbicidal effect rating, SAGPY (SAGITTARIA PYGMAEA, L.; 0.500 kg/ha)
1.0: CASOB herbicidal rating (CASSIA OBTUSIFOLIA, L. [2]; Rate 0.125 kg/ha) | CASOB herbicidal rating (CASSIA OBTUSIFOLIA, L. [2]; Rate 0.250 kg/ha)
4.5: GALAP herbicidal rating (GALIUM APARINE; Rate 0.125 kg/ha) | GALAP herbicidal rating (GALIUM APARINE; Rate 0.250 kg/ha)

COC(=O)Cn1c(=O)n(C)c(=O)n(-c2cc(Oc3ncc(C(F)(F)F)cc3Cl)ccc2Br)c1=O [Compound 45]
0.0: AMBEL herbicidal rating ([1]; Rate 0.125 kg/ha) | AMBEL herbicidal rating ([1]; Rate 0.250 kg/ha) | AMBEL herbicidal rating ([1]; Rate 0.500 kg/ha) | CASOB herbicidal rating (CASSIA OBTUSIFOLIA, L. [2]; Rate 0.125 kg/ha) | CASOB herbicidal rating (CASSIA OBTUSIFOLIA, L. [2]; Rate 0.250 kg/ha) | CASOB herbicidal rating (CASSIA OBTUSIFOLIA, L. [2]; Rate 0.500 kg/ha) | IPOSS herbicidal rating (IPOMOEA SPP. [3]; Rate 0.125 kg/ha) | IPOSS herbicidal rating (IPOMOEA SPP. [3]; Rate 0.250 kg/ha) | IPOSS herbicidal rating (IPOMOEA SPP. [3]; Rate 0.500 kg/ha) | ZEAMX herbicidal rating (ZEA MAYS L. [16]; Rate 0.125 kg/ha) | ZEAMX herbicidal rating (ZEA MAYS L. [16]; Rate 0.250 kg/ha) | ZEAMX herbicidal rating (ZEA MAYS L. [16]; Rate 0.500 kg/ha)
6.0: Herbicidal effect rating, ORYSAT ([6]; 0.500 kg/ha)
9.0: ABUTH rating ([7]; Rate 0.125 kg/ha) | ABUTH rating ([7]; Rate 0.250 kg/ha) | ABUTH rating ([7]; Rate 0.500 kg/ha) | AMBEL rating ([8]; Rate 0.125 kg/ha) | AMBEL rating ([8]; Rate 0.250 kg/ha) | AMBEL rating ([8]; Rate 0.500 kg/ha) | CASOB rating (CASSIA OBTUSIFOLIA, L. [9]; Rate 0.125 kg/ha) | CASOB rating (CASSIA OBTUSIFOLIA, L. [9]; Rate 0.250 kg/ha) | CASOB rating (CASSIA OBTUSIFOLIA, L. [9]; Rate 0.500 kg/ha) | CHEAL rating (CHENOPODIUM ALBUM, L. [10]; Rate 0.125 kg/ha) | CHEAL rating (CHENOPODIUM ALBUM, L. [10]; Rate 0.250 kg/ha) | CHEAL rating (CHENOPODIUM ALBUM, L. [10]; Rate 0.500 kg/ha) | IPOSS rating (IPOMOEA SPP. [11]; Rate 0.125 kg/ha) | IPOSS rating (IPOMOEA SPP. [11]; Rate 0.250 kg/ha) | IPOSS rating (IPOMOEA SPP. [11]; Rate 0.500 kg/ha) | SETVI rating ([12]; Rate 0.125 kg/ha) | SETVI rating ([12]; Rate 0.250 kg/ha) | SETVI rating ([12]; Rate 0.500 kg/ha) | TRZAWO rating ([13]; Rate 0.125 kg/ha) | TRZAWO rating ([13]; Rate 0.250 kg/ha) | TRZAWO rating ([13]; Rate 0.500 kg/ha) | ZEAMX rating (ZEA MAYS L. [14]; Rate 0.125 kg/ha) | ZEAMX rating (ZEA MAYS L. [14]; Rate 0.250 kg/ha) | ZEAMX rating (ZEA MAYS L. [14]; Rate 0.500 kg/ha) | CHEAL herbicidal rating (CHENOPODIUM ALBUM, L. [15]; Rate 0.125 kg/ha) | CHEAL herbicidal rating (CHENOPODIUM ALBUM, L. [15]; Rate 0.250 kg/ha) | CHEAL herbicidal rating (CHENOPODIUM ALBUM, L. [15]; Rate 0.500 kg/ha)
4.0: Herbicidal effect rating, ORYSAT ([6]; 0.250 kg/ha)
2.0: Herbicidal effect rating, ORYSAT ([6]; 0.063 kg/ha) | Herbicidal effect rating, ORYSAT ([6]; 0.125 kg/ha)
